Numbered stars: 1 amine (or outer) side, 2 acyl side, 3 side chain; on linkers, the order of the positions; unused ones are H or OH. Bridge positions count the residues as written; N and C are the ends. Square brackets hold non-standard residues; d marks the D form. Peptide text beside a SMILES is read from it. X16 = C=CCOC(=O)N1CC[C@@](N[*:1])(C(=O)[*:2])C1; X10 = CN(CC=[*:3])C[C@@](C)(N[*:1])C(=O)[*:2]; X14 = O=C([C@@]1(N[*:1])CCN(CC=[*:3])C1)[*:2]; R8 = C=CCCCCCC[C@@](C)(N)C(=O)O; S8 = C=CCCCCCC[C@](C)(N)C(=O)O
What follows are compounds tested against T1, full-length beta-catenin (Axin site) (Homo sapiens, UniProt P35222) (assay: Competition fluorescence polarization assay (Axin site probe)). Conditions: competition fluorescence polarization, Table 2; read-out: in vitro FP EC50.
T1 construct: 15 nM full-length beta-catenin, 20 nM FITC labeled peptide in buffer
T1 sequence (P35222 1-781): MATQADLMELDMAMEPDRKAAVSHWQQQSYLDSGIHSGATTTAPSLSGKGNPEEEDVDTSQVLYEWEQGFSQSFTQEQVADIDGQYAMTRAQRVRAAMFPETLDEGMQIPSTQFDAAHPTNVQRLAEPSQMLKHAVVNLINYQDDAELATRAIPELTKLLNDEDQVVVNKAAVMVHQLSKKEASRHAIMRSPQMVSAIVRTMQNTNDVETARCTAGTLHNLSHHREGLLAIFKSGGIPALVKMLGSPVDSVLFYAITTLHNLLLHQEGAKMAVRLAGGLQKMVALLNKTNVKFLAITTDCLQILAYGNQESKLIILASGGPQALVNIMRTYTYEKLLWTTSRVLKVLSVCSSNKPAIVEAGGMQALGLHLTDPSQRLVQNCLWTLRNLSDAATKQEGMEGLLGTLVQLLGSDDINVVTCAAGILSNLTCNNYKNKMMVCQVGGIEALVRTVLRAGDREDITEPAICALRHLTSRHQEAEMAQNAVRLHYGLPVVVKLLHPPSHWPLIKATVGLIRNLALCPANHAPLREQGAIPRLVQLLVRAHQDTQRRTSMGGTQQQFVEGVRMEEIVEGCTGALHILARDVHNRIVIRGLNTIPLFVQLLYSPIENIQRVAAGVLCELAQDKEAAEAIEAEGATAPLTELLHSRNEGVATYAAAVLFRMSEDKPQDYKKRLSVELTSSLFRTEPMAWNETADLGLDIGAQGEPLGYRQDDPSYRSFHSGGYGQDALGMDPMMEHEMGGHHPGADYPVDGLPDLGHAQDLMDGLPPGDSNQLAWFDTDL
Format: binding
Procedure, shortened: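 Competition FP: 15 nM full-length β-catenin pre-incubated 5 min with 20 nM FITC-labelled stapled Axin-site peptide, then titrated peptide added (3-fold series from 5 μM) for 15 min in the dark. Buffer 50 mM Tris pH 8.0, 250 mM NaCl, 2% glycerol, 0.5 mM EDTA; duplicate reads.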

Structure (SMILES) | EC50
CC[C@H](C)[C@@H]1NC(=O)[C@@]2(NC(=O)[C@H](C)NC(=O)[C@@H]3CCCN3C(C)=O)CCN(C2)C(=O)OCC=CCCCCCC[C@@](C)(C(=O)N[C@@H](CCCNC(=N)N)C(=O)N[C@H](C(=O)N[C@@H](Cc2c[nH]c3ccccc23)C(N)=O)C(C)C)NC(=O)[C@H](C(C)C)NC(=O)[C@H](Cc2c[nH]cn2)NC(=O)[C@H](C)NC(=O)[C@H](CC(=O)O)NC(=O)[C@H](CC(C)C)NC1=O [FP0005c, Ac-P-A-MC-I-L-D-A-H-V-S8-R-V-W-NH2] | < 0.1 µM
CC[C@H](C)[C@@H]1NC(=O)[C@@]2(NC(=O)[C@H](C)NC(=O)[C@@H]3CCCN3C(C)=O)CCN(CC=CCCCCCC[C@@](C)(C(=O)N[C@@H](CCCNC(=N)N)C(=O)N[C@H](C(=O)N[C@@H](Cc3c[nH]c4ccccc34)C(N)=O)C(C)C)NC(=O)[C@H](C(C)C)NC(=O)[C@H](Cc3c[nH]cn3)NC(=O)[C@H](C)NC(=O)[C@H](CC(=O)O)NC(=O)[C@H](CC(C)C)NC1=O)C2 [FP0006a, Ac-P-A-MC-I-L-D-A-H-V-S8-R-V-W-NH2] (Ac-PA[X14]ILDAHV[S8]RVW-NH2; staple 3-10) | < 0.1 µM
C=CCCCCCC[C@@](C)(NC(=O)[C@H](C)NC(C)=O)C(=O)N[C@H](C(=O)N[C@@H](CC(C)C)C(=O)N[C@@H](CC(=O)O)C(=O)N[C@@H](C)C(=O)N[C@@H](Cc1c[nH]cn1)C(=O)N[C@H](C(=O)N[C@@]1(C(=O)N[C@@H](CCCNC(=N)N)C(=O)N[C@H](C(=O)N[C@@H](Cc2c[nH]c3ccccc23)C(N)=O)C(C)C)CCN(C(=O)OCC=C)C1)[C@@H](C)CC)[C@@H](C)CC [FP0217u, Ac-A-R8-I-L-D-A-H-I-MB-R-V-W-NH2] (Ac-A[R8]ILDAHI[X16]RVW-NH2) | < 0.1 µM
CC[C@H](C)[C@@H]1NC(=O)[C@H](Cc2c[nH]cn2)NC(=O)[C@H](C)NC(=O)[C@H](CC(N)=O)NC(=O)[C@H](CC(C)C)NC(=O)[C@H]([C@@H](C)CC)NC(=O)[C@](C)(NC(=O)[C@H](C)NC(C)=O)CCCCCCC=CCOC(=O)N2CC[C@@](C(=O)N[C@@H](CCCNC(=N)N)C(=O)N[C@H](C(=O)N[C@@H](Cc3c[nH]c4ccccc34)C(N)=O)C(C)C)(C2)NC1=O [FP0218c, Ac-A-R8-I-L-N-A-H-I-MB-R-V-W-NH2] | 0.1 to 0.5 µM
CC[C@H](C)[C@@H]1NC(=O)[C@H](Cc2c[nH]cn2)NC(=O)[C@H](C)NC(=O)[C@H]([C@@H](C)O)NC(=O)[C@H](CC(C)C)NC(=O)[C@H]([C@@H](C)CC)NC(=O)[C@](C)(NC(=O)[C@H](C)NC(C)=O)CCCCCCC=CCOC(=O)N2CC[C@@](C(=O)N[C@@H](CCCNC(=N)N)C(=O)N[C@H](C(=O)N[C@@H](Cc3c[nH]c4ccccc34)C(N)=O)C(C)C)(C2)NC1=O [FP0219c, Ac-A-R8-I-L-T-A-H-I-MB-R-V-W-NH2] | 0.1 to 0.5 µM

The next lines start with the values.

EC50 | Structure (SMILES)
0.1 to 0.5 µM | CC[C@H](C)[C@@H]1NC(=O)[C@H](Cc2c[nH]cn2)NC(=O)[C@H](C)NC(=O)[C@H](CC(=O)O)NC(=O)[C@H](CC(C)C)NC(=O)[C@H]([C@@H](C)CC)NC(=O)[C@](C)(NC(=O)[C@H](C)NC(C)=O)CN(C)CC=CCCCCCC[C@@](C)(C(=O)N[C@@H](CCCNC(=N)N)C(=O)N[C@H](C(=O)N[C@@H](Cc2c[nH]c3ccccc23)C(N)=O)C(C)C)NC1=O [FP0335a, Ac-A-ME-I-L-D-A-H-I-S8-R-V-W-NH2] (Ac-A[X10]ILDAHI[S8]RVW-NH2; staple 2-9)
0.5 to 5 µM | CC[C@H](C)[C@@H]1NC(=O)[C@H](Cc2c[nH]cn2)NC(=O)[C@H](C)NC(=O)[C@H](CC(=O)O)NC(=O)[C@H](CC(C)C)NC(=O)[C@H](C)NC(=O)[C@](C)(NC(=O)[C@H](C)NC(C)=O)CCCCCCC=CCOC(=O)N2CC[C@@](C(=O)N[C@@H](CCCNC(=N)N)C(=O)N[C@H](C(=O)N[C@@H](Cc3c[nH]c4ccccc34)C(N)=O)C(C)C)(C2)NC1=O [FP0405c, Ac-A-R8-A-L-D-A-H-I-MB-R-V-W-NH2]
0.1 to 0.5 µM | CC[C@H](C)[C@@H]1NC(=O)[C@H](Cc2c[nH]cn2)NC(=O)[C@H](C)NC(=O)[C@H](CC(=O)O)NC(=O)[C@H](C)NC(=O)[C@H]([C@@H](C)CC)NC(=O)[C@](C)(NC(=O)[C@H](C)NC(C)=O)CCCCCCC=CCOC(=O)N2CC[C@@](C(=O)N[C@@H](CCCNC(=N)N)C(=O)N[C@H](C(=O)N[C@@H](Cc3c[nH]c4ccccc34)C(N)=O)C(C)C)(C2)NC1=O [FP0406c, Ac-A-R8-I-A-D-A-H-I-MB-R-V-W-NH2]
0.5 to 5 µM | CC[C@H](C)[C@@H]1NC(=O)[C@H](Cc2c[nH]cn2)NC(=O)[C@H](C)NC(=O)[C@H](C)NC(=O)[C@H](CC(C)C)NC(=O)[C@H]([C@@H](C)CC)NC(=O)[C@](C)(NC(=O)[C@H](C)NC(C)=O)CCCCCCC=CCOC(=O)N2CC[C@@](C(=O)N[C@@H](CCCNC(=N)N)C(=O)N[C@H](C(=O)N[C@@H](Cc3c[nH]c4ccccc34)C(N)=O)C(C)C)(C2)NC1=O [FP0407c, Ac-A-R8-I-L-A-A-H-I-MB-R-V-W-NH2]

Same assay, conditions: competition with FITC labeled Axin-site probe, 15 nM full-length beta-catenin; read-out: FP EC50

EC50 | Structure (SMILES)
0.58 µM | CC[C@H](C)[C@@H]1NC(=O)[C@](C)(NC(=O)[C@H](CCC(N)=O)NC(=O)[C@@H]2CCCN2C(C)=O)CCCC=CCN(C)CC[C@](C)(C(=O)N[C@@H](Cc2c[nH]cn2)C(=O)N[C@H](C(=O)N[C@@H](CCCNC(=N)N)C(=O)N[C@@H](CCCNC(=N)N)C(=O)N[C@H](C(=O)N[C@@H](Cc2c[nH]c3ccccc23)C(=O)N[C@@H](CCCNC(=N)N)C(N)=O)C(C)C)C(C)C)NC(=O)[C@H](CC(=O)O)NC(=O)[C@H](CC(C)C)NC1=O (single isomer, unassigned) [FP-0776, Ac-P-Q-R5-I-L-D-RdN-H-V-R-R-V-W-R-NH2]
1.3 µM | CC[C@H](C)[C@@H]1NC(=O)[C@@](C)(NC(=O)[C@H](CCC(N)=O)NC(=O)[C@@H]2CCCN2C(C)=O)CCN(C)C(=O)OCC=CCCC[C@@](C)(C(=O)N[C@@H](Cc2c[nH]cn2)C(=O)N[C@H](C(=O)N[C@@H](CCCNC(=N)N)C(=O)N[C@@H](CCCNC(=N)N)C(=O)N[C@H](C(=O)N[C@@H](Cc2c[nH]c3ccccc23)C(=O)N[C@@H](CCCNC(=N)N)C(N)=O)C(C)C)C(C)C)NC(=O)[C@H](CC(=O)O)NC(=O)[C@H](CC(C)C)NC1=O (single isomer, unassigned) [FP-0779c, Ac-P-Q-SdN-I-L-D-S5-H-V-R-R-V-W-R-NH2]
1.4 µM | CC[C@H](C)[C@@H]1NC(=O)[C@](C)(NC(=O)[C@H](CCC(N)=O)NC(=O)[C@@H]2CCCN2C(C)=O)CCCN(C)CC=CCCC[C@](C)(C(=O)N[C@@H](Cc2c[nH]cn2)C(=O)N[C@H](C(=O)N[C@@H](CCCNC(=N)N)C(=O)N[C@@H](CCCNC(=N)N)C(=O)N[C@H](C(=O)N[C@@H](Cc2c[nH]c3ccccc23)C(=O)N[C@@H](CCCNC(=N)N)C(N)=O)C(C)C)C(C)C)NC(=O)[C@H](CC(=O)O)NC(=O)[C@H](CC(C)C)NC1=O (single isomer, unassigned) [FP-0783, Ac-P-Q-ReN-I-L-D-R5-H-V-R-R-V-W-R-NH2]
~0.1 µM | CC[C@H](C)[C@@H]1NC(=O)[C@@](C)(NC(=O)[C@H](CCC(N)=O)NC(=O)[C@@H]2CCCN2C(C)=O)CCCC=CCCC[C@@](C)(C(=O)N[C@@H](Cc2c[nH]cn2)C(=O)N[C@H](C(=O)N[C@@H](CCCNC(=N)N)C(=O)N[C@@H](CCCNC(=N)N)C(=O)N[C@H](C(=O)N[C@@H](Cc2c[nH]c3ccccc23)C(=O)N[C@@H](CCCNC(=N)N)C(N)=O)C(C)C)C(C)C)NC(=O)[C@H](CC(=O)O)NC(=O)[C@H](CC(C)C)NC1=O (single isomer, unassigned) [FP-0787]
